From PubChem BioAssay AID256 (DTP/NCI, 2004)
Values joined by “and” are separate entries in the source; they are usually repeats but may differ in a detail not shown here. Equal values may be shown once. Toxic doses and inconclusive results are not listed. How the source made its calls: active means survival T/C of 150% or more; inactive means T/C below 125% in these data.

System: CD2F1 mice, L1210 leukemia ip, survival T/C
Experiment: NCI In Vivo Anticancer Drug Screen. Data for tumor model L1210 Leukemia (intraperitoneal) in CD2F1 (CDF1) mice
Conditions: higher = longer survival
Summary of the method: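 Vehicle-treated tumor-bearing mice served as controls (C) for compound-treated mice (T). Reported figure is T divided by C.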

[1] = endpoint: mean survival time, dose: 100.0 mg/kg/injection, schedule: Q01DX001 (ip), vehicle: saline
[2] = endpoint: mean survival time, dose: 200.0 mg/kg/injection, schedule: Q01DX001 (ip), vehicle: saline
[3] = endpoint: mean survival time, dose: 400.0 mg/kg/injection, schedule: Q01DX001 (ip), vehicle: saline
[4] = endpoint: mean survival time, dose: 100.0 mg/kg/injection, schedule: Q01DX009 (ip), vehicle: saline with Tween-80
[5] = endpoint: mean survival time, dose: 50.0 mg/kg/injection, schedule: Q04DX003 (ip), vehicle: saline

Measured: T/C

Cc1c2ccccc2cc2cccc[n+]12
inactive: endpoint: mean survival time, dose: 2.5 mg/kg/injection, schedule: Q01DX009 (ip), vehicle: saline 95 % of control and 100 % of control | endpoint: mean survival time, dose: 5.0 mg/kg/injection, schedule: Q01DX009 (ip), vehicle: saline 95 % of control and 101 % of control | endpoint: mean survival time, dose: 10.0 mg/kg/injection, schedule: Q01DX009 (ip), vehicle: saline 102 % of control and 110 % of control | endpoint: mean survival time, dose: 20.0 mg/kg/injection, schedule: Q01DX009 (ip), vehicle: saline 97 % of control and 106 % of control

[Cl][Hg][Cl]
inactive: endpoint: median survival time, dose: 0.39 mg/kg/injection, schedule: Q01DX009 (ip), vehicle: saline 101 % of control | endpoint: median survival time, dose: 0.78 mg/kg/injection, schedule: Q01DX009 (ip), vehicle: saline 97 % of control | endpoint: median survival time, dose: 1.56 mg/kg/injection, schedule: Q01DX009 (ip), vehicle: saline 101 % of control | endpoint: median survival time, dose: 3.12 mg/kg/injection, schedule: Q01DX009 (ip), vehicle: saline 92 % of control

CCCCOC(=O)c1ccc(OC(=O)Nc2ccc(C)cc2[N+](=O)[O-])cc1
inactive: endpoint: mean survival time, dose: 25.0 mg/kg/injection, schedule: Q01DX009 (ip), vehicle: saline + alcohol 102 % of control | endpoint: mean survival time, dose: 50.0 mg/kg/injection, schedule: Q01DX001 (ip), vehicle: saline with Tween-80 109 % of control | endpoint: mean survival time, dose: 50.0 mg/kg/injection, schedule: Q01DX009 (ip), vehicle: saline + alcohol 108 % of control | endpoint: mean survival time, dose: 100.0 mg/kg/injection, schedule: Q01DX001 (ip), vehicle: saline with Tween-80 113 % of control | endpoint: mean survival time, dose: 100.0 mg/kg/injection, schedule: Q01DX009 (ip), vehicle: saline + alcohol 103 % of control | endpoint: mean survival time, dose: 200.0 mg/kg/injection, schedule: Q01DX001 (ip), vehicle: saline with Tween-80 109 % of control | endpoint: mean survival time, dose: 200.0 mg/kg/injection, schedule: Q01DX009 (ip), vehicle: saline + alcohol 101 % of control | endpoint: mean survival time, dose: 400.0 mg/kg/injection, schedule: Q01DX001 (ip), vehicle: saline with Tween-80 107 % of control

CC(=O)OC1CCC2(C)C(CCC3C2CCC2(C)C(c4cccc(=O)o4)CCC32)C1 (stereo not given)
inactive: [1] 101 % of control | [2] 97 % of control | [3] 95 % of control

NC(N)=N/N=C/c1ccncc1
inactive: endpoint: mean survival time, dose: 100.0 mg/kg/injection, schedule: Q04DX002 (ip), vehicle: saline 92 % of control

O=C1C2C3CC4C5C3C1C5C1(OCCO1)C42 (stereo not given)
inactive: endpoint: mean survival time, dose: 25.0 mg/kg/injection, schedule: Q04DX002 (ip), vehicle: saline with Tween-80 107 % of control | endpoint: mean survival time, dose: 50.0 mg/kg/injection, schedule: Q04DX002 (ip), vehicle: saline with Tween-80 107 % of control | endpoint: mean survival time, dose: 100.0 mg/kg/injection, schedule: Q04DX002 (ip), vehicle: saline with Tween-80 100 % of control | endpoint: mean survival time, dose: 200.0 mg/kg/injection, schedule: Q04DX002 (ip), vehicle: saline with Tween-80 107 % of control

S=c1[nH]nc(Nc2ccccc2Cl)s1
inactive: endpoint: mean survival time, dose: 100.0 mg/kg/injection, schedule: Q04DX003 (ip), vehicle: Klucel (hydroxypropylcellulose) (HPC) 95 % of control | endpoint: mean survival time, dose: 200.0 mg/kg/injection, schedule: Q04DX003 (ip), vehicle: Klucel (hydroxypropylcellulose) (HPC) 95 % of control | endpoint: mean survival time, dose: 400.0 mg/kg/injection, schedule: Q04DX003 (ip), vehicle: Klucel (hydroxypropylcellulose) (HPC) 95 % of control

CC1(C)OCC(C2CCC3(C)C4=CCC5C(C)(C)C(O)CCC5(C)C4CCC23C)CC(O)C1O (stereo not given)
inactive: endpoint: mean survival time, dose: 2.5 mg/kg/injection, schedule: Q01DX009 (ip), vehicle: Klucel (hydroxypropylcellulose) (HPC) 101 % of control | endpoint: mean survival time, dose: 5.0 mg/kg/injection, schedule: Q01DX009 (ip), vehicle: Klucel (hydroxypropylcellulose) (HPC) 95 % of control | endpoint: mean survival time, dose: 10.0 mg/kg/injection, schedule: Q01DX009 (ip), vehicle: Klucel (hydroxypropylcellulose) (HPC) 97 % of control

CC(O)C1CCC2C3CCC4CC(O)CCC4(C)C3CCC12C (stereo not given)
inactive: endpoint: mean survival time, dose: 100.0 mg/kg/injection, schedule: Q04DX003 (ip), vehicle: saline with Tween-80 95 % of control | endpoint: mean survival time, dose: 200.0 mg/kg/injection, schedule: Q04DX003 (ip), vehicle: saline with Tween-80 96 % of control | endpoint: mean survival time, dose: 400.0 mg/kg/injection, schedule: Q04DX003 (ip), vehicle: saline with Tween-80 101 % of control

CC[C@]1(O)C[C@H]2CN(CCc3c([nH]c4ccccc34)[C@@](C(=O)OC)(c3cc4c(cc3OC)N(C=O)[C@H]3[C@@](O)(C(=O)OC)[C@H](OC(C)=O)[C@]5(CC)C=CCN6CC[C@]43[C@@H]65)C2)C1
inactive: endpoint: mean survival time, dose: 0.08 mg/kg/injection, schedule: Q01DX009 (ip), vehicle: water 121 % of control | endpoint: mean survival time, dose: 0.13 mg/kg/injection, schedule: Q01DX009 (ip), vehicle: water 122 % of control | endpoint: mean survival time, dose: 0.2 mg/kg/injection, schedule: Q04DX003 (ip), vehicle: saline 115 % of control | endpoint: mean survival time, dose: 0.2 mg/kg/injection, schedule: Q04DX003 (ip), vehicle: water 106 % of control | endpoint: mean survival time, dose: 0.23 mg/kg/injection, schedule: Q04DX003 (ip), vehicle: water 121 % of control and 98 % of control | endpoint: mean survival time, dose: 0.36 mg/kg/injection, schedule: Q01DX009 (ip), vehicle: water 104 % of control | endpoint: mean survival time, dose: 0.39 mg/kg/injection, schedule: Q04DX003 (ip), vehicle: water 118 % of control and 108 % of control | endpoint: mean survival time, dose: 0.4 mg/kg/injection, schedule: Q04DX003 (ip), vehicle: water 106 % of control and 112 % of control | endpoint: mean survival time, dose: 0.5 mg/kg/injection, schedule: Q01DX009 (ip), vehicle: saline 102 % of control | endpoint: mean survival time, dose: 0.5 mg/kg/injection, schedule: Q04DX004 (ip), vehicle: saline 117 % of control and 120 % of control and 112 % of control | endpoint: mean survival time, dose: 0.65 mg/kg/injection, schedule: Q04DX003 (ip), vehicle: water 112 % of control | endpoint: mean survival time, dose: 0.8 mg/kg/injection, schedule: Q04DX003 (ip), vehicle: water 103 % of control and 110 % of control | endpoint: mean survival time, dose: 1.0 mg/kg/injection, schedule: Q01DX009 (ip), vehicle: saline 68 % of control and 73 % of control | endpoint: mean survival time, dose: 1.0 mg/kg/injection, schedule: Q04DX004 (ip), vehicle: saline 119 % of control | endpoint: mean survival time, dose: 1.08 mg/kg/injection, schedule: Q04DX003 (ip), vehicle: water 118 % of control | endpoint: mean survival time, dose: 1.5 mg/kg/injection, schedule: Q04DX003 (ip), vehicle: saline 121 % of control | endpoint: mean survival time, dose: 1.5 mg/kg/injection, schedule: Q04DX004 (ip), vehicle: saline 119 % of control | endpoint: mean survival time, dose: 1.6 mg/kg/injection, schedule: Q04DX003 (ip), vehicle: saline 120 % of control | endpoint: mean survival time, dose: 1.6 mg/kg/injection, schedule: Q04DX003 (ip), vehicle: water 117 % of control and 108 % of control | endpoint: mean survival time, dose: 78.0 micrograms/kg/injection, schedule: Q01DX009 (ip), vehicle: water 102 % of control | endpoint: mean survival time, dose: 130.0 micrograms/kg/injection, schedule: Q01DX009 (ip), vehicle: water 108 % of control | endpoint: mean survival time, dose: 216.0 micrograms/kg/injection, schedule: Q01DX009 (ip), vehicle: water 114 % of control | endpoint: mean survival time, dose: 360.0 micrograms/kg/injection, schedule: Q01DX009 (ip), vehicle: water 124 % of control | endpoint: median survival time, dose: 62.5 micrograms/kg/injection, schedule: Q01DX009 (ip), vehicle: water 115 % of control | endpoint: median survival time, dose: 125.0 micrograms/kg/injection, schedule: Q01DX009 (ip), vehicle: water 121 % of control | endpoint: median survival time, dose: 1000.0 micrograms/kg/injection, schedule: Q01DX009 (ip), vehicle: water 95 % of control

COc1cc(OC)c(NC(=O)N2CCN(C)CC2)cc1Cl
inactive: endpoint: mean survival time, dose: 50.0 mg/kg/injection, schedule: Q01DX009 (ip), vehicle: saline with Tween-80 88 % of control | [4] 94 % of control

Nc1nnn(CCO)n1
inactive: [4] 100 % of control | endpoint: mean survival time, dose: 200.0 mg/kg/injection, schedule: Q01DX009 (ip), vehicle: saline with Tween-80 97 % of control | endpoint: mean survival time, dose: 400.0 mg/kg/injection, schedule: Q01DX009 (ip), vehicle: saline with Tween-80 96 % of control

CCN(CC)CCCC(C)N (stereo not given)
inactive: [5] 101 % of control

O=S(=O)(c1ccccc1)c1cccs1
inactive: [5] 93 % of control | [1] 110 % of control | endpoint: mean survival time, dose: 100.0 mg/kg/injection, schedule: Q04DX003 (ip), vehicle: saline 98 % of control | [2] 112 % of control | endpoint: mean survival time, dose: 200.0 mg/kg/injection, schedule: Q04DX003 (ip), vehicle: saline 95 % of control | [3] 112 % of control

CC(=O)C(C(C)=O)C1=C(Cl)C(=O)c2ccccc2C1=O
inactive: endpoint: mean survival time, dose: 75.0 mg/kg/injection, schedule: Q01DX001 (ip), vehicle: other 94 % of control | endpoint: mean survival time, dose: 150.0 mg/kg/injection, schedule: Q01DX001 (ip), vehicle: other 100 % of control | endpoint: mean survival time, dose: 300.0 mg/kg/injection, schedule: Q01DX001 (ip), vehicle: other 97 % of control

O=C(NCCN1CCCCC1)C(O)(C1CCCCC1)C1CCCCC1
inactive: endpoint: mean survival time, dose: 75.0 mg/kg/injection, schedule: Q01DX001 (ip), vehicle: saline 97 % of control | endpoint: mean survival time, dose: 150.0 mg/kg/injection, schedule: Q01DX001 (ip), vehicle: saline 97 % of control | endpoint: mean survival time, dose: 300.0 mg/kg/injection, schedule: Q01DX001 (ip), vehicle: saline 97 % of control

O=[N+]([O-])c1ccc(OCCBr)cc1
inactive: endpoint: mean survival time, dose: 100.0 mg/kg/injection, schedule: Q01DX009 (ip), vehicle: other 91 % of control | endpoint: mean survival time, dose: 200.0 mg/kg/injection, schedule: Q01DX009 (ip), vehicle: other 98 % of control | endpoint: mean survival time, dose: 400.0 mg/kg/injection, schedule: Q01DX009 (ip), vehicle: other 94 % of control
